Laboratory results published in patent US9738634B2, “Heterocyclic amide compound and herbicide” (SYNGENTA PARTICIPATIONS AG, priority 2013, dated 2017).

Legend:
Format in all cases: in vivo
Conditions in all cases: treatment dosage 320 g/ha
barnyard grass [1] = test: Test Example 1: weedkilling efficacy, preemergent weed treatment in the submerged state; A: barnyard grass
In short: (§1)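 Emulsion diluted with water to the specified per-hectare dosage is applied onto flood water (4 cm) over alluvial soil on the sowing day, with barnyard grass, bulrush and pondweed seeded and rice (2.5-leaf) transplanted; plants grow at 25–30 °C and are rated at 3 weeks.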

bulrush [2] = test: Test Example 1: weedkilling efficacy, preemergent weed treatment in the submerged state; B: bulrush
In short: as §1

oval-leafed pondweed [3] = test: Test Example 1: weedkilling efficacy, preemergent weed treatment in the submerged state; C: oval-leafed pondweed
In short: as §1

transplanted rice = test: Test Example 1: preemergent weed treatment in the submerged state, effect on crop; a: transplanted rice
In short: as §1

barnyard grass [4] = test: Test Example 2: weedkilling efficacy, growth period weed treatment in the submerged state; A: barnyard grass
In short: (§2)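 First, alluvial soil in pots is flooded to 4 cm and mixed seed is sown. Next, plants grow in a greenhouse at 25 to 30° C until the 1-2 leaf stage. Then diluted emulsion is applied onto the water surface at the given g/ha rate, and injury is assessed after 3 weeks.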

bulrush [5] = test: Test Example 2: weedkilling efficacy, growth period weed treatment in the submerged state; B: bulrush
In short: as §2

oval-leafed pondweed [6] = test: Test Example 2: weedkilling efficacy, growth period weed treatment in the submerged state; C: oval-leafed pondweed
In short: as §2

crabgrass [7] = test: Test Example 3: weedkilling efficacy through soil treatment; D: crabgrass
In short: (§3)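 Crop and weed responses were judged three weeks after a uniform surface spray of the water-diluted emulsion at the given g/ha rate. Seeds sat beneath about 1.5 cm of sterilized diluvial soil, and boxes stood in a greenhouse at 25 to 30° C.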

green foxtail [8] = test: Test Example 3: weedkilling efficacy through soil treatment; E: green foxtail
In short: as §3

barnyard grass [9] = test: Test Example 3: weedkilling efficacy through soil treatment; F: barnyard grass
In short: as §3

wild oat [10] = test: Test Example 3: weedkilling efficacy through soil treatment; G: wild oat
In short: as §3

black-grass [11] = test: Test Example 3: weedkilling efficacy through soil treatment; H: black-grass
In short: as §3

Italian ryegrass [12] = test: Test Example 3: weedkilling efficacy through soil treatment; I: Italian ryegrass
In short: as §3

common wind-grass [13] = test: Test Example 3: weedkilling efficacy through soil treatment; J: common wind-grass
In short: as §3

Indian mallow [14] = test: Test Example 3: weedkilling efficacy through soil treatment; K: Indian mallow
In short: as §3

redroot pigweed [15] = test: Test Example 3: weedkilling efficacy through soil treatment; L: redroot pigweed
In short: as §3

fig-leafed goosefoot [16] = test: Test Example 3: weedkilling efficacy through soil treatment; M: fig-leafed goosefoot
In short: as §3

chickweed [17] = test: Test Example 3: weedkilling efficacy through soil treatment; N: chickweed
In short: as §3

catchweed [18] = test: Test Example 3: weedkilling efficacy through soil treatment; O: catchweed
In short: as §3

birds-eye speedwell = test: Test Example 3: weedkilling efficacy through soil treatment; p: birds-eye speedwell
In short: as §3

directly sown rice [19] = test: Test Example 3: soil treatment, effect on crop; b: directly sown rice
In short: as §3

corn [20] = test: Test Example 3: soil treatment, effect on crop; c: corn
In short: as §3

soybean [21] = test: Test Example 3: soil treatment, effect on crop; d: soybean
In short: as §3

wheat [22] = test: Test Example 3: soil treatment, effect on crop; e: wheat
In short: as §3

beet [23] = test: Test Example 3: soil treatment, effect on crop; f: beet
In short: as §3

rapeseed [24] = test: Test Example 3: soil treatment, effect on crop; g: rapeseed
In short: as §3

crabgrass [25] = test: Test Example 4: weedkilling efficacy by foliar treatment; D: crabgrass
In short: (§4)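 Seeds are spot-sown into sterilized diluvial soil and covered with about 1.5 cm of soil. After 14 days' greenhouse growth at 25 to 30° C, plants are sprayed on stems and leaves with diluted emulsion at the stated g/ha rate, then scored at 3 weeks.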

green foxtail [26] = test: Test Example 4: weedkilling efficacy by foliar treatment; E: green foxtail
In short: as §4

barnyard grass [27] = test: Test Example 4: weedkilling efficacy by foliar treatment; F: barnyard grass
In short: as §4

wild oat [28] = test: Test Example 4: weedkilling efficacy by foliar treatment; G: wild oat
In short: as §4

black-grass [29] = test: Test Example 4: weedkilling efficacy by foliar treatment; H: black-grass
In short: as §4

Italian ryegrass [30] = test: Test Example 4: weedkilling efficacy by foliar treatment; I: Italian ryegrass
In short: as §4

common wind-grass [31] = test: Test Example 4: weedkilling efficacy by foliar treatment; J: common wind-grass
In short: as §4

Indian mallow [32] = test: Test Example 4: weedkilling efficacy by foliar treatment; K: Indian mallow
In short: as §4

redroot pigweed [33] = test: Test Example 4: weedkilling efficacy by foliar treatment; L: redroot pigweed
In short: as §4

fig-leafed goosefoot [34] = test: Test Example 4: weedkilling efficacy by foliar treatment; M: fig-leafed goosefoot
In short: as §4

chickweed [35] = test: Test Example 4: weedkilling efficacy by foliar treatment; N: chickweed
In short: as §4

catchweed [36] = test: Test Example 4: weedkilling efficacy by foliar treatment; O: catchweed
In short: as §4

directly sown rice [37] = test: Test Example 4: foliar treatment, effect on crop; b: directly sown rice
In short: as §4

corn [38] = test: Test Example 4: foliar treatment, effect on crop; c: corn
In short: as §4

soybean [39] = test: Test Example 4: foliar treatment, effect on crop; d: soybean
In short: as §4

wheat [40] = test: Test Example 4: foliar treatment, effect on crop; e: wheat
In short: as §4

beet [41] = test: Test Example 4: foliar treatment, effect on crop; f: beet
In short: as §4

rapeseed [42] = test: Test Example 4: foliar treatment, effect on crop; g: rapeseed
In short: as §4

For `CC1=C(c2cccnc2F)C(=O)N(C(C)(C)C(=O)Nc2cc(Cl)cc(Br)n2)CO1` [B-2-12], the “A (barnyard grass) weedkilling efficacy grade” value (barnyard grass [1]) was 5 (weed kill ratio 90% or more, (practically complete withering)), the “B (bulrush) weedkilling efficacy grade” value (bulrush [2]) was 5 (weed kill ratio 90% or more, (practically complete withering)) and the “C (oval-leafed pondweed) weedkilling efficacy grade” value (oval-leafed pondweed [3]) was 5 (weed kill ratio 90% or more, (practically complete withering)). The “a (transplanted rice) effect on crop grade” value (transplanted rice) was 5 (weed kill ratio 90% or more, (practically complete withering)), the “A (barnyard grass) weedkilling efficacy grade” value (barnyard grass [4]) was 5 (weed kill ratio 90% or more, (practically complete withering)) and the “B (bulrush) weedkilling efficacy grade” value (bulrush [5]) was 5 (weed kill ratio 90% or more, (practically complete withering)). The “C (oval-leafed pondweed) weedkilling efficacy grade” value (oval-leafed pondweed [6]) was 5 (weed kill ratio 90% or more, (practically complete withering)), the “D (crabgrass) weedkilling efficacy grade” value (crabgrass [7]) was 5 (weed kill ratio 90% or more, (practically complete withering)) and the “E (green foxtail) weedkilling efficacy grade” value (green foxtail [8]) was 5 (weed kill ratio 90% or more, (practically complete withering)). The “F (barnyard grass) weedkilling efficacy grade” value (barnyard grass [9]) was 5 (weed kill ratio 90% or more, (practically complete withering)), the “G (wild oat) weedkilling efficacy grade” value (wild oat [10]) was 1 (weed kill ratio 5% or more, less than 20%) and the “H (black-grass) weedkilling efficacy grade” value (black-grass [11]) was 5 (weed kill ratio 90% or more, (practically complete withering)). For the same compound, the “I (Italian ryegrass) weedkilling efficacy grade” value (Italian ryegrass [12]) was 5 (weed kill ratio 90% or more, (practically complete withering)), the “J (common wind-grass) weedkilling efficacy grade” value (common wind-grass [13]) was 5 (weed kill ratio 90% or more, (practically complete withering)) and the “K (Indian mallow) weedkilling efficacy grade” value (Indian mallow [14]) was 0 (weed kill ratio 5% or less (practically no effect)). The “L (redroot pigweed) weedkilling efficacy grade” value (redroot pigweed [15]) was 0 (weed kill ratio 5% or less (practically no effect)), the “M (fig-leafed goosefoot) weedkilling efficacy grade” value (fig-leafed goosefoot [16]) was 3 (weed kill ratio 40% or more, less than 70%) and the “N (chickweed) weedkilling efficacy grade” value (chickweed [17]) was 4 (weed kill ratio 70% or more, less than 90%). For the same compound, the “O (catchweed) weedkilling efficacy grade” value (catchweed [18]) was 2 (weed kill ratio 20% or more, less than 40%), the “P (birds-eye speedwell) weedkilling efficacy grade” value (birds-eye speedwell) was 4 (weed kill ratio 70% or more, less than 90%) and the “b (directly sown rice) effect on crop grade” value (directly sown rice [19]) was 3 (weed kill ratio 40% or more, less than 70%). For the same compound, the “c (corn) effect on crop grade” value (corn [20]) was 0 (weed kill ratio 5% or less (practically no effect)), the “d (soybean) effect on crop grade” value (soybean [21]) was 0 (weed kill ratio 5% or less (practically no effect)) and the “e (wheat) effect on crop grade” value (wheat [22]) was 0 (weed kill ratio 5% or less (practically no effect)). The “f (beet) effect on crop grade” value (beet [23]) was 0 (weed kill ratio 5% or less (practically no effect)), the “g (rapeseed) effect on crop grade” value (rapeseed [24]) was 0 (weed kill ratio 5% or less (practically no effect)) and the “D (crabgrass) weedkilling efficacy grade” value (crabgrass [25]) was 5 (weed kill ratio 90% or more, (practically complete withering)). For the same compound, the “E (green foxtail) weedkilling efficacy grade” value (green foxtail [26]) was 5 (weed kill ratio 90% or more, (practically complete withering)), the “F (barnyard grass) weedkilling efficacy grade” value (barnyard grass [27]) was 5 (weed kill ratio 90% or more, (practically complete withering)) and the “G (wild oat) weedkilling efficacy grade” value (wild oat [28]) was 4 (weed kill ratio 70% or more, less than 90%). For the same compound, the “H (black-grass) weedkilling efficacy grade” value (black-grass [29]) was 5 (weed kill ratio 90% or more, (practically complete withering)), the “I (Italian ryegrass) weedkilling efficacy grade” value (Italian ryegrass [30]) was 5 (weed kill ratio 90% or more, (practically complete withering)) and the “J (common wind-grass) weedkilling efficacy grade” value (common wind-grass [31]) was 5 (weed kill ratio 90% or more, (practically complete withering)). For the same compound, the “K (Indian mallow) weedkilling efficacy grade” value (Indian mallow [32]) was 5 (weed kill ratio 90% or more, (practically complete withering)), the “L (redroot pigweed) weedkilling efficacy grade” value (redroot pigweed [33]) was 4 (weed kill ratio 70% or more, less than 90%) and the “M (fig-leafed goosefoot) weedkilling efficacy grade” value (fig-leafed goosefoot [34]) was 4 (weed kill ratio 70% or more, less than 90%). The “N (chickweed) weedkilling efficacy grade” value (chickweed [35]) was 4 (weed kill ratio 70% or more, less than 90%), the “O (catchweed) weedkilling efficacy grade” value (catchweed [36]) was 4 (weed kill ratio 70% or more, less than 90%) and the “b (directly sown rice) effect on crop grade” value (directly sown rice [37]) was 5 (weed kill ratio 90% or more, (practically complete withering)). For the same compound, the “c (corn) effect on crop grade” value (corn [38]) was 4 (weed kill ratio 70% or more, less than 90%), the “d (soybean) effect on crop grade” value (soybean [39]) was 4 (weed kill ratio 70% or more, less than 90%) and the “e (wheat) effect on crop grade” value (wheat [40]) was 0 (weed kill ratio 5% or less (practically no effect)). For the same compound, the “f (beet) effect on crop grade” value (beet [41]) was 4 (weed kill ratio 70% or more, less than 90%) and the “g (rapeseed) effect on crop grade” value (rapeseed [42]) was 4 (weed kill ratio 70% or more, less than 90%).
